Data as given in ChEMBL document CHEMBL5143617 (Eur J Med Chem, 2022).
Values after ≈ are worked out from the molar mass of the structure shown.

How the values were obtained:
[1] = Metabolic stability in human liver microsomes assessed as half life
[2] = biological target: T1, Adrenergic receptor alpha-1 (Homo sapiens, UniProt P35348+P25100+P35368); assay: Binding affinity to adrenergic alpha 1 receptor (unknown origin); type: protein assay
T1 sequence (P35348 whole entry): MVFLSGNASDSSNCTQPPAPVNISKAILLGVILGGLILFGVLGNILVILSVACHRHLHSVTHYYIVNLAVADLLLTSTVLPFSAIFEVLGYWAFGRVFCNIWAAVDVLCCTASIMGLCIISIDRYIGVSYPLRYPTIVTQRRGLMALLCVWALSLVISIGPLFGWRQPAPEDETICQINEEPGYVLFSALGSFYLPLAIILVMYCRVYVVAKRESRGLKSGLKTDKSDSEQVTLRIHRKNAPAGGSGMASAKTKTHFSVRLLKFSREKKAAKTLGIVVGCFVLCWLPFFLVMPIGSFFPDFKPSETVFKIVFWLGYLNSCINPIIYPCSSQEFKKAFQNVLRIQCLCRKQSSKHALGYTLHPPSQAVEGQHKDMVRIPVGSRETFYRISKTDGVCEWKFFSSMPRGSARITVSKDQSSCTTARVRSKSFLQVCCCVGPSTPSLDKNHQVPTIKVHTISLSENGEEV
T1 sequence (P25100 whole entry): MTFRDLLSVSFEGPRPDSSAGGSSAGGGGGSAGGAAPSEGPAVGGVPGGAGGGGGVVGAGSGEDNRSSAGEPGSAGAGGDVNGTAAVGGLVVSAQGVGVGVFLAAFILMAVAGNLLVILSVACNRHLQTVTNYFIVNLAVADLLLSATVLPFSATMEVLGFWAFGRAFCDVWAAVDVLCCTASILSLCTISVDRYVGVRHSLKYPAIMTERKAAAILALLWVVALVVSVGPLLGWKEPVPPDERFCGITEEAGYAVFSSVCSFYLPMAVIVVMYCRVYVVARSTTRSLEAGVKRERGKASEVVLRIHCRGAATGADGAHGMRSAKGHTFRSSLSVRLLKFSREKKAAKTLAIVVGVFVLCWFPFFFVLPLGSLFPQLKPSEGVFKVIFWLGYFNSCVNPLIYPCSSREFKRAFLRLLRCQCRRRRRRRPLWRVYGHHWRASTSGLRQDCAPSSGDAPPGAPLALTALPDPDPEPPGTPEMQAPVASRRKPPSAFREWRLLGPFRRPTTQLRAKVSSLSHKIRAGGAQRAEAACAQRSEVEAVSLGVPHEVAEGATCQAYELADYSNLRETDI
T1 sequence (P35368 whole entry): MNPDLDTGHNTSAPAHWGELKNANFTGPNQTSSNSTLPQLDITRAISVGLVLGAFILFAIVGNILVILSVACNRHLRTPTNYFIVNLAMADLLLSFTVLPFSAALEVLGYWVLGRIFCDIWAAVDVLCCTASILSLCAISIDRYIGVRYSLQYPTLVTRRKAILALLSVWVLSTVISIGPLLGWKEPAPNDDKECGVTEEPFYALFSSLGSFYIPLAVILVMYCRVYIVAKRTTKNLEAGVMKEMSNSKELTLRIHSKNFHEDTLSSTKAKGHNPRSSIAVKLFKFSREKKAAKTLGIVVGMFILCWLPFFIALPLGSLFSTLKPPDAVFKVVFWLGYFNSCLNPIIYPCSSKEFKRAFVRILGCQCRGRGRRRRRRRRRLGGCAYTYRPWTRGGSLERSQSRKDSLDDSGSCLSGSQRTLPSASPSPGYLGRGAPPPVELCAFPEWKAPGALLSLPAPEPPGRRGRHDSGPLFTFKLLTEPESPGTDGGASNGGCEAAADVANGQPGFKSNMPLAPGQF

[3] = Tmax in mouse plasma at 0.625 mg/kg, ip measured up to 480 mins by LC/ESI-MS/MS analysis; type: ADME, organism-based
[4] = Plasma protein binding in human by LC-MS/MS analysis; type: ADME, cell-free; settings: read-out: PPB (converted)
[5] = Ratio of drug concentration in Hippocampus to plasma in mouse at 0.625 mg/kg, ip by LC/ESI-MS/MS analysis; type: ADME, organism-based; settings: hippocampus and plasma
Mus musculus = assay: Antidepressant activity in Swiss albino mouse assessed as reduction in immobility time at 0.625 mg/kg, ip measured for last 4 mins of 6 mins test by forced swim test; type: functional; design: scale not given: the % may be the effect or the level left; settings: 0.1 h
[6] = Metabolic stability in human liver microsomes assessed as intrinsic clearance
[7] = Aqueous solubility of compound in PBS buffer at pH 7.4 by UV absorbance based analysis; type: physicochemical
[8] = AUC(0 to t) in mouse striatum at 0.625 mg/kg, ip by LC/ESI-MS/MS analysis; type: ADME, organism-based; design: dose 0.625 mg/kg, route ip
[9] = Aqueous solubility of compound in simulated gastric fluid by UV absorbance based analysis; type: physicochemical
[10] = Tmax in mouse frontal cortex at 0.625 mg/kg, ip by LC/ESI-MS/MS analysis; type: ADME, organism-based
[11] = AUC(0 to t) in mouse plasma at 0.625 mg/kg, ip measured up to 480 mins by LC/ESI-MS/MS analysis; type: ADME, organism-based; design: time < 480 min, dose 0.625 mg/kg, route ip; settings: in vivo, 8 h
[12] = biological target: 5-hydroxytryptamine receptor 7 (Homo sapiens, UniProt P34969); assay: Displacement of [3H]-5-CT from human 5-HT7 receptor expressed in CHO-K1 cells membrane by scintillation counter analysis; type: cell membranes
Chain of 5-hydroxytryptamine receptor 7 (P34969 whole entry): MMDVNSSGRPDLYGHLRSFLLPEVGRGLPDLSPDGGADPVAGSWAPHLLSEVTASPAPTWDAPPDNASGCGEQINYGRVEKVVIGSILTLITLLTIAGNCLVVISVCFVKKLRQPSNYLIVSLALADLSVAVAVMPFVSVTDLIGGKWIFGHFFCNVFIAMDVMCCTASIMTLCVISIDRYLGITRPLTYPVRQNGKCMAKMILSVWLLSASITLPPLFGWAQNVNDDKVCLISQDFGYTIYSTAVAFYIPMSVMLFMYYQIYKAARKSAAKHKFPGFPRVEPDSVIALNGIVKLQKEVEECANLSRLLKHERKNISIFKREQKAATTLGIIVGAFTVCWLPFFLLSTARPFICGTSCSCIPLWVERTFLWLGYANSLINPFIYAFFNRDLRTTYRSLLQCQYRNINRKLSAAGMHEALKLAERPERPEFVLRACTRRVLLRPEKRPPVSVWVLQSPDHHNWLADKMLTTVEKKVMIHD

[13] = Cmax in mouse plasma at 0.625 mg/kg, ip measured up to 480 mins by LC/ESI-MS/MS analysis; type: ADME, organism-based; design: time < 480 min, dose 0.625 mg/kg, route ip
[14] = Cmax in mouse frontal cortex at 0.625 mg/kg, ip by LC/ESI-MS/MS analysis; type: ADME, organism-based; design: dose 0.625 mg/kg, route ip
[15] = Tmax in mouse striatum at 0.625 mg/kg, ip by LC/ESI-MS/MS analysis; type: ADME, organism-based
D(2) dopamine receptor = D(2) dopamine receptor (Homo sapiens, UniProt P14416); assay: Binding affinity to dopamine D2 receptor (unknown origin)
Chain of D(2) dopamine receptor (P14416 whole entry): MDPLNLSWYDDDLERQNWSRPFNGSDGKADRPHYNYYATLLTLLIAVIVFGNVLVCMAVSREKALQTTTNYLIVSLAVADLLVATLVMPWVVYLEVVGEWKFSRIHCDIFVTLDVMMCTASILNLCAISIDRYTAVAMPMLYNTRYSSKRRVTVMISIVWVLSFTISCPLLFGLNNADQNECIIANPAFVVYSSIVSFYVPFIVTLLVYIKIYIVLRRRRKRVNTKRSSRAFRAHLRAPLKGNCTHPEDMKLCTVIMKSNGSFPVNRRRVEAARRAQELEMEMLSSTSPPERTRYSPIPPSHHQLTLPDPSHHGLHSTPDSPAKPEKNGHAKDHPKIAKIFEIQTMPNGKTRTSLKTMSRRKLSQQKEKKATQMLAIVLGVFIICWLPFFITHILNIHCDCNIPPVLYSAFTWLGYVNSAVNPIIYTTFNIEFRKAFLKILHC

[16] = AUC(0 to t) in mouse hippocampus at 0.625 mg/kg, ip by LC/ESI-MS/MS analysis; type: ADME, organism-based; design: dose 0.625 mg/kg, route ip
[17] = biological target: 5-hydroxytryptamine receptor 6 (Homo sapiens) (UniProt P50406); assay: Inhibition of 5-HT6 receptor (unknown origin); settings: concentration not given here
Chain of 5-hydroxytryptamine receptor 6 (Homo sapiens) (P50406 whole entry): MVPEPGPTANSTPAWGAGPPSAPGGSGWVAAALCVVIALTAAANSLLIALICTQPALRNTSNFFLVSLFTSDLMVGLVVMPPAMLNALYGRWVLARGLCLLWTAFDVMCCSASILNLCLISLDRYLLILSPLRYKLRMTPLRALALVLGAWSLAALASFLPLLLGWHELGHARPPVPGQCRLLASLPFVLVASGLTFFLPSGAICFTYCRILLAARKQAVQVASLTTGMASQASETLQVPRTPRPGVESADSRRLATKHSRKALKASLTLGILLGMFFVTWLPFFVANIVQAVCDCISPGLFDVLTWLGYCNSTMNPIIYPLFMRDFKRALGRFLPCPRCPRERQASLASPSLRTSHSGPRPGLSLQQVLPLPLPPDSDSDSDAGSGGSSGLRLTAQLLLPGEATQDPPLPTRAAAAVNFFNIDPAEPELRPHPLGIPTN

half-life [1]: 49 min
pKi [2]: 6.11
Tmax [3]: 5 min
fraction unbound [4]: 0.018
Kp [5]: 85.4
microsomal CLint [6]: 75.8 µL/min/mg
solubility [7]: 187 µM (≈ 87.5 µg/mL)
AUC(0-t) [8]: 1060 ng·h/mL
solubility [9]: 196 µM (≈ 91.9 µg/mL)
Tmax [10]: 480 min
AUCt [11]: 730 ng·min/mL
Ki [12]: 138 nM
Cmax [13]: 4.1 ng/mL
Cmax [14]: 327 ng/mL
Tmax [15]: 30 min
Ki (D(2) dopamine receptor): > 1000 nM
AUC(0-t) [16]: 1040 ng·h/mL
inhibition [17]: 8%
SMILES: COc1cc2ncnc(N3CCC(CN4CCN(c5ccc(Cl)cc5)CC4)C3)c2cc1OC (centres undefined)
Activity (Mus musculus): 50%
